In US8541572B2 one finds IC50 data, which are given here for 60 compounds.

One experiment deals with TNF-α production in LPS-stimulated human whole blood. The experiment in a line: Inhibition of TNF-α production from human whole blood (hWBA). Type of experiment: cell-based. Particulars: Homo sapiens, IC50 for TNF-α production, LPS-stimulated human whole blood; read-out: hWBA.
In the case of `COc1ccc2c(c1)C(=O)N(C[C@@]1(C#Cc3cncc(C(=O)NN)c3)NC(=O)NC1=O)C2` [Compound 2255], the IC50 stood at 432 nM.

In the case of `COc1ccc2c(c1)C(=O)N(C[C@]1(C#Cc3cncc(C(=O)NN)c3)NC(=O)NC1=O)C2` [Compound 2256], the IC50 is 1000 nM.

With `COc1ccc2c(c1)C(=O)N(C[C@@]1(C#Cc3ccc(C4(C)NC(=O)NC4=O)cc3C)NC(=O)NC1=O)C2` (stereo partly drawn) [Compound 2257], the IC50 was found to be 490 nM.

Regarding `COc1ccc2c(c1)C(=O)N(C[C@@]1(C#Cc3ccc(C(C)(C)C(N)=O)cc3)NC(=O)NC1=O)C2` [Compound 2262], the IC50 stood at 517 nM.

The same experiment, now with this note: Homo sapiens, IC50 for inhibition of TNF-α production, LPS-stimulated human whole blood; read-out: hWBA.
Consider `COc1ccc2c(c1)C(=O)N(C[C@@]1(C#Cc3ccc(NC(=O)C4CCN(C)CC4)cc3)NC(=O)NC1=O)C2` [Compound 1909], for which the IC50 stood at 78 nM.

On to `COc1ccc2c(c1)C(=O)N(C[C@@]1(C#Cc3ccc(-n4cn[nH]c4=O)cc3)NC(=O)NC1=O)C2` [Compound 1914], for which the IC50 was found to be 538 nM.

With `COc1ccc2c(c1)C(=O)N(C[C@@]1(C#Cc3ccc(-n4c(-c5cccnc5)n[nH]c4=O)cc3)NC(=O)NC1=O)C2` [Compound 1916], the IC50 is 258 nM.

As to `COc1ccc2c(c1)C(=O)N(C[C@@]1(C#Cc3ccccc3C=O)NC(=O)NC1=O)C2` [Compound 1918], the IC50 was 936 nM.

Turning to `CCN1CCN(C(=NO)c2cnc(C#C[C@]3(CN4Cc5ccc(OC)cc5C4=O)NC(=O)NC3=O)c(OC)c2)CC1` [Compound 1923], the IC50 was 204 nM.

On to `COc1ccc2c(c1)C(=O)N(C[C@@]1(C#Cc3ccc(C(c4ccc[nH]4)c4ccc[nH]4)cc3)NC(=O)NC1=O)C2` [Compound 2201], for which the IC50 was found to be 1200 nM.

Take `COc1ccc2c(c1)C(=O)N(C[C@@]1(C#Cc3cnc(N)nc3N)NC(=O)NC1=O)C2` [Compound 2209]: the IC50 was found to be 1600 nM.

In the case of `COc1ccc2c(c1)C(=O)N(C[C@@]1(C#Cc3cncc(-c4ccc(C(N)=O)o4)c3)NC(=O)NC1=O)C2` [Compound 2213], the IC50 stood at 776 nM.

Turning to `COc1ccc2c(c1)C(=O)N(C[C@@]1(C#Cc3cnc4ccccc4c3CO)NC(=O)NC1=O)C2` [Compound 2219], the IC50 came to 8900 nM.

For `COc1ccc2c(c1)C(=O)N(C[C@@]1(C#Cc3cc(C(N)=O)ccc3C)NC(=O)NC1=O)C2` [Compound 2220], the IC50 turned out to be 417 nM.

As to `COc1ccc2c(c1)C(=O)N(C[C@@]1(C#Cc3ccc(CCNC(=O)C(F)(F)F)s3)NC(=O)NC1=O)C2` [Compound 2221], the IC50 turned out to be 930 nM.

For `COc1ccc2c(c1)C(=O)N(C[C@@]1(C#Cc3cc(Br)ccc3O)NC(=O)NC1=O)C2` [Compound 2229], the IC50 was 10000 nM.

Take `COc1ccc2c(c1)C(=O)N(C[C@@]1(C#Cc3ccc(OC)nc3OC)NC(=O)NC1=O)C2` [Compound 2230]: the IC50 worked out at 1000 nM.

Regarding `COc1ccc2c(c1)C(=O)N(C[C@@]1(C#Cc3cnc(C)nc3O)NC(=O)NC1=O)C2` [Compound 2231], the IC50 is 1130 nM.

With `COc1ccc2c(c1)C(=O)N(C[C@@]1(C#Cc3cncc(-c4cc[nH]n4)c3)NC(=O)NC1=O)C2` [Compound 2234], the IC50 came to 678 nM.

Staying with this experiment, now noted: IC50 for TNF-α production, LPS-stimulated human whole blood; read-out: hWBA.
On to `COc1ccc2c(c1)C(=O)N(C[C@@]1(C#Cc3cncc(-c4noc(C(N)=O)n4)c3)NC(=O)NC1=O)C2` [Compound 2254], for which the IC50 worked out at 713 nM.

For the compound `COc1ccc2c(c1)C(=O)N(C[C@@]1(C#Cc3ccc(C4(C(N)=O)CC4)cc3)NC(=O)NC1=O)C2` [Compound 2260], the IC50 was 227 nM.

Regarding `CNC(=O)C1(c2ccc(C#C[C@]3(CN4Cc5ccc(OC)cc5C4=O)NC(=O)NC3=O)cc2)CC1` [Compound 2261], the IC50 amounted to 443 nM.

Still in this experiment, the particulars now being: IC50 for inhibition of TNF-α production, LPS-stimulated human whole blood; read-out: hWBA.
Turning to `COc1ccc2c(c1F)C(=O)N(C[C@@]1(C#Cc3ccc(C(CN)N4CCC(N)C4)cc3)NC(=O)NC1=O)C2` (stereo partly drawn) [Compound 1704], the IC50 came to 109 nM.

`COc1ccc2c(c1)C(=O)N(C[C@@]1(C#Cc3ccc(C(CN)N4CCC(N)C4)cc3)NC(=O)NC1=O)C2` (stereo partly drawn) [Compound 1705]: the IC50 was 233 nM.

For `COc1ccc2c(c1F)C(=O)N(C[C@@]1(C#Cc3ccc(N4CCNCC4)cc3)NC(=O)NC1=O)C2` [Compound 1706], the IC50 was found to be 118 nM.

Take `COc1ccc2c(c1)C(=O)N(C[C@@]1(C#Cc3cncc(-c4ccc(O)c(-c5cn[nH]c5)n4)c3)NC(=O)NC1=O)C2` [Compound 1707]: the IC50 is 374 nM.

Turning to `COc1ccc2c(c1)C(=O)N(C[C@@]1(C#Cc3nc(-c4n[nH]c(=O)n4C4CCN(C)CC4)ccc3OC)NC(=O)NC1=O)C2` [Compound 1900], the IC50 stood at 2190 nM.

Consider `CCN1CCN(C(=O)C2CCC(=O)N2c2ccc(C#C[C@]3(CN4Cc5ccc(OC)cc5C4=O)NC(=O)NC3=O)cc2)CC1` (stereo partly drawn) [Compound 1901], for which the IC50 came to 113 nM.

Turning to `CCN1CCN(C(=O)C2CCC(=O)N2c2ccc(C#C[C@]3(CN4Cc5ccc(OC)c(F)c5C4=O)NC(=O)NC3=O)cc2)CC1` (stereo partly drawn) [Compound 1903], the IC50 was found to be 152 nM.

For `COc1ccc2c(c1)C(=O)N(C[C@@]1(C#Cc3ccc(N4C(=O)CCC4C(=O)N4CCN(C)CC4)cc3)NC(=O)NC1=O)C2` (stereo partly drawn) [Compound 1905], the IC50 is 416 nM.

Consider `COc1ccc2c(c1)C(=O)N(C[C@@]1(C#Cc3ccc(N4C(=O)CCC4(C(=O)O)C(C)(C)O)nc3)NC(=O)NC1=O)C2` (stereo partly drawn) [Compound 1906], for which the IC50 amounted to 578 nM.

Consider `COc1ccc2c(c1F)C(=O)N(C[C@@]1(C#Cc3cncc(NC(=O)C4CCN(C)CC4)c3)NC(=O)NC1=O)C2` [Compound 1907], for which the IC50 is 86 nM.

Turning to `COc1ccc2c(c1)C(=O)N(C[C@@]1(C#Cc3cncc(NC(=O)C4CCN(C)CC4)c3)NC(=O)NC1=O)C2` [Compound 1908], the IC50 was found to be 299 nM.

Regarding `COc1ccc2c(c1)C(=O)N(C[C@@]1(C#Cc3ccc(-n4c(C)n[nH]c4=O)cc3)NC(=O)NC1=O)C2` [Compound 1915], the IC50 was 243 nM.

`CCN1CCN(C(=O)C2CCC(=O)N2c2ccc(OC)c(C#C[C@]3(CN4Cc5ccc(OC)cc5C4=O)NC(=O)NC3=O)n2)CC1` (stereo partly drawn) [Compound 1917]: the IC50 is 3360 nM.

As to `COc1ccc2c(c1)C(=O)N(C[C@@]1(C#Cc3ccc(-c4nnc(N)o4)cc3)NC(=O)NC1=O)C2` [Compound 1919], the IC50 came out at 244 nM.

In the case of `CCNc1nnc(-c2ccc(C#C[C@]3(CN4Cc5ccc(OC)cc5C4=O)NC(=O)NC3=O)cc2)o1` [Compound 1920], the IC50 stood at 269 nM.

With `COc1ccc2c(c1)C(=O)N(C[C@@]1(C#Cc3nc(N)ccc3O)NC(=O)NC1=O)C2` [Compound 1921], the IC50 amounted to 808 nM.

As to `COc1ccc2c(c1)C(=O)N(C[C@@]1(C#Cc3nc(-c4cccc(O)c4)ccc3OC)NC(=O)NC1=O)C2` [Compound 1922], the IC50 stood at 9910 nM.

Consider `COc1ccc2c(c1)C(=O)N(C[C@@]1(C#Cc3ncc(C(=NO)N4CCN(c5cnccn5)CC4)cc3OC)NC(=O)NC1=O)C2` [Compound 1924], for which the IC50 amounted to 515 nM.

For `COc1ccc2c(c1)C(=O)N(C[C@@]1(C#Cc3ccc(N(c4cccnc4)C4CCNCC4)nc3)NC(=O)NC1=O)C2` [Compound 2200], the IC50 turned out to be 430 nM.

Take `COc1ccc2c(c1)C(=O)N(C[C@@]1(C#Cc3ccc(CCN)cc3)NC(=O)NC1=O)C2` [Compound 2202]: the IC50 amounted to 219 nM.

`COc1ccc2c(c1)C(=O)N(C[C@@]1(C#Cc3nc(N4CCN(c5ccncc5)CC4)ccc3OC)NC(=O)NC1=O)C2` [Compound 2205]: the IC50 was determined as 7270 nM.

For the compound `COc1ccc2c(c1)C(=O)N(C[C@@]1(C#Cc3cncc(-c4cn[nH]c4)c3)NC(=O)NC1=O)C2` [Compound 2207], the IC50 was 260 nM.

For `COc1ccc2c(c1)C(=O)N(C[C@@]1(C#Cc3cncc(-c4ccc(C(N)=O)cc4)c3)NC(=O)NC1=O)C2` [Compound 2208], the IC50 amounted to 361 nM.

For the compound `COc1ccc2c(c1)C(=O)N(C[C@@]1(C#Cc3cnc(N4CCC(=O)CC4)nc3N)NC(=O)NC1=O)C2` [Compound 2210], the IC50 was 1010 nM.

Turning to `COc1ccc2c(c1)C(=O)N(C[C@@]1(C#Cc3ccc(N4CCC(=O)CC4)nc3)NC(=O)NC1=O)C2` [Compound 2211], the IC50 came to 1000 nM.

`COc1ccc2c(c1)C(=O)N(C[C@@]1(C#Cc3ccc(C4(CN5Cc6cc(O)ccc6C5=O)NC(=O)NC4=O)cc3)NC(=O)NC1=O)C2` (stereo partly drawn) [Compound 2216]: the IC50 was 419 nM.

Consider `COc1ccc2c(c1)C(=O)N(C[C@@]1(C#Cc3ccc([C@@]4(CN5Cc6ccc(OC)cc6C5=O)NC(=O)NC4=O)cc3)NC(=O)NC1=O)C2` [Compound 2217], for which the IC50 was found to be 849 nM.

As to `COc1ccc2c(c1)C(=O)N(C[C@@]1(C#Cc3ccc(C4=NCCN4)cc3)NC(=O)NC1=O)C2` [Compound 2222], the IC50 is 227 nM.

For the compound `COc1ccc2c(c1)C(=O)N(C[C@@]1(C#Cc3ccc(-c4nnc[nH]4)cc3OC)NC(=O)NC1=O)C2` [Compound 2223], the IC50 came to 131 nM.

As to `COc1ccc2c(c1)C(=O)N(C[C@@]1(C#Cc3ccc(-n4cncn4)cc3)NC(=O)NC1=O)C2` [Compound 2228], the IC50 came out at 1140 nM.

On to `COc1ccc2c(c1)C(=O)N(C[C@@]1(C#Cc3c(C)ncc(C(=O)O)c3O)NC(=O)NC1=O)C2` [Compound 2232], for which the IC50 was 699 nM.

Regarding `COc1ccc2c(c1)C(=O)N(C[C@@]1(C#Cc3cncc(-c4csc(N)n4)c3)NC(=O)NC1=O)C2` [Compound 2233], the IC50 is 811 nM.

With `COc1ccc2c(c1)C(=O)N(C[C@@]1(C#Cc3ccc4[nH]nc(N)c4c3)NC(=O)NC1=O)C2` [Compound 2237], the IC50 was 520 nM.

Turning to `CCN1CCN(c2n[nH]c3ccc(C#C[C@]4(CN5Cc6ccc(OC)cc6C5=O)NC(=O)NC4=O)cc23)CC1` [Compound 2238], the IC50 was found to be 422 nM.

In the case of `COc1ccc2c(c1)C(=O)N(C[C@@]1(C#Cc3cncc(NC(C)=O)c3)NC(=O)NC1=O)C2` [Compound 2242], the IC50 was 444 nM.

Regarding `CCOC(=O)Nc1cncc(C#C[C@]2(CN3Cc4ccc(OC)cc4C3=O)NC(=O)NC2=O)c1` [Compound 2243], the IC50 was 1230 nM.

As for `COc1ccc2c(c1)C(=O)N(C[C@@]1(C#Cc3cnc4nc(O)oc4c3)NC(=O)NC1=O)C2` [Compound 2244], the IC50 is 574 nM.

In the case of `COc1ccc2c(c1)C(=O)N(C[C@@]1(C#Cc3ccc(C(=NO)C4CCN(C)CC4)cc3)NC(=O)NC1=O)C2` [Compound 2246], the IC50 amounted to 40 nM.
